Test results published in patent US20230374141A1, “COMBINATION THERAPY FOR ALPORT RENAL DISEASE” (Father Flanagan's Boys' Home Doing Business as Boys Town …, priority 2020, published 2023).
No end group written: not given here.

Assays:
α1 null Alport mice = test: Proteinuria (Bradford assay, normalized to urinary creatinine) in α1 null Alport mice; type: in vivo; conditions: ramipril-treated vs untreated α1-null Alport mice; total protein normalized to urinary creatinine
Procedure: FIG. 1. […] Urine was collected from the indicated treatment groups at the indicated ages. Total protein was measured by Bradford assay and normalized to urinary creatinine.
(§1) Autosomal Alport mice or al integrin null Alport (DKO) mice (both on the 129 Sv background) were given straight water or treated with ramipril (10 mg/kg/day in drinking water) starting at 3 weeks of age. Proteinuria (FIG. 1) and lifespan (FIG. 2) were measured. We were surprised to see the improvement of lifespan from 20 weeks in ramipril-treated Alport mice to >30 weeks in ramipril-treated DKO mice. Tripling the lifespan of the Alport mouse model (which lives to on average 10 weeks of age as is evident in FIG. 2) is unprecedented in the Alport field. Integrin α1-null Alport (DKO) mice treated with ramipril live twice as long as untreated DKO mice and 3 times as long as untreated Alport mice. Animals from the indicated treatment groups were allowed to live until they lost >10% of their peak body weight and then euthanized (a humane endpoint, considered age of death). DKO mice show a 60% increase in lifespan. […] If translated to humans (as did ramipril treatment starting at a young age) this therapy could portend survival to 60-70 years of age for Alport patients with severe mutations.

DKO mice [1] = test: Dual immunofluorescence of glomeruli for mesangial proteins in the GBM of DKO mice; type: in vivo
From the text: FIGS. 3A-3F are color dual immunofluorescence confocal images of glomeruli stained with antibodies against laminin α5 (a GBM marker) and laminin α2. FIGS. 3A-3C are untreated DKO mice. FIGS. 3D-3F are DKO mice treated with Ramipril. FIGS. 3A and 3D show laminin α5 data. FIGS. 3B and 3E show laminin α2 data. FIGS. 3C and 3F show a merge of the laminin α5 and laminin α2 data.
FIGS. 4A-4F are color dual immunofluorescence confocal images of glomeruli stained with antibodies against nidogen (a GBM marker) and collagen III. FIGS. 4A-4C are untreated DKO mice. FIGS. 4D-4F are DKO mice treated with Ramipril. FIGS. 4A and 4D show nidogen data. FIGS. 4B and 4E show collagen 3 α1 data. FIGS. […] show a merge of the nidogen and collagen 3 α1 data.
This evidence has obvious and important translational value. By preventing the invasion of the glomerular capillaries by mesangial filopodia, the deposition of mesangial proteins in the GBM is prevented. This prevents podocyte injury that is caused by the mesangial matrix.
If the ECM deposition in the GBM is indeed a significant contributor to glomerular pathology we would expect it would be delayed in the ramipril-treated DKO mice. To determine if this was indeed the case, we performed immunohistochemical analysis for laminin 211 dual stained with the GBM marker laminin α5. Specifically, Duan immunofluorescence analysis was performed on cryosections from 20 and 25 week old DKO/ramipril mice. Sections were immunostained using antibodies for laminin 211 and laminin α5 (a GBM marker). […] Between 20 and 25 weeks of age, however, GBM localization of laminin 211 became widespread as depicted in FIGS. 6A-6F. FIGS. 6A-6C are the 20-week data and FIGS. 6D-6F are the 25-week data.

[2] = tested on: al integrin null Alport (DKO) mice; test: Lifespan of ramipril-treated α1 integrin null Alport (DKO) mice; type: in vivo
Procedure: as §1

DKO mice [3] = test: Glomerular filtration rate, MediBeacon transdermal LED approach, DKO mice; type: in vivo; conditions: ramipril-treated DKO mice, 25 weeks relative to 20 weeks of age; two mice
Procedure: Glomerular filtration rates (GFR) were measured using the MediBeacon (St Louis, MO) transdermal LED approach, which allows serial measurements to be conducted in the same animals. […] Serial GFR measures were made using two ramipril-treated DKO mice. GFR measures were at 20 and 25 weeks of age. Additional mice at additional timepoints of measure (to 30 weeks) will be added as part of the research plan to establish statistical significance.

Autosomal Alport mice = test: Lifespan of ramipril-treated autosomal Alport mice; type: in vivo; conditions: ramipril 10 mg/kg/day in drinking water from 3 weeks of age, 129 Sv, humane endpoint >10% loss of peak body weight
Procedure: as §1

mesangial cells = test: Filopodia formation in cultured mesangial cells; type: cell-based
From the text: Thus, it appears that the al-null mesangial cells are refractive to activation of CDC42, which is consistent with the markedly attenuated effect on mesangial filopodial invasion, explaining why al integrin blockade attenuates ECM-mediated podocyte injury.

[4] = ramipril-treated DKO mice at 10 weeks of age, untreated DKO had a significant amount

| Compound | proteinuria (α1 null Alport mice) | collagen III in the GBM (DKO mice [1]; [4]) | laminin 211 in the GBM (DKO mice [1]; [4]) | GBM accumulation of laminin 211 (DKO mice [1]; ramipril-treated DKO mice, before 20 weeks of age) | GBM localization of laminin 211 (DKO mice [1]; ramipril-treated DKO mice, between 20 and 25 weeks of age) | lifespan (age of death) ([2]; ramipril 10 mg/kg/day in drinking water from 3 weeks of age, α1 integrin null Alport (DKO) mice, 129 Sv) [weeks] | lifespan relative to untreated Alport mice ([2]; ramipril-treated DKO mice) [times] | lifespan relative to untreated DKO mice ([2]; ramipril-treated DKO mice) | GFR (DKO mice [3]) | lifespan (age of death) (Autosomal Alport mice) [weeks] | formation of filopodia (mesangial cells; wild type mesangial cells) | formation of filopodia (mesangial cells; α1-null mesangial cells) |
| --- | --- | --- | --- | --- | --- | --- | --- | --- | --- | --- | --- | --- |
| CCOC(=O)[C@H](CCc1ccccc1)N[C@@H](C)C(=O)N1[C@H](C(=O)O)C[C@@H]2CCC[C@@H]21 [ramipril] | markedly reduced | no laminin 211 or collagen III in the GBM | no laminin 211 or collagen III in the GBM | did not observe any significant GBM accumulation | widespread | > 30 | 3 | twice as long | marked reduction | 20 |  |  |
| endothelin-1: stimulus of filopodial formation in mesangial cells (CSCSSLMDKECVYFCHLDIIW; ends and bridges not checked; cysteine pairing not given here; UniProt P05305 53-73, looked up) |  |  |  |  |  |  |  |  |  |  | activates the formation of filopodia | do not respond |
